Assay results taken from ChEMBL document CHEMBL1221235, “Novel Notch-sparing gamma-secretase inhibitors derived from a peroxisome proliferator-activated receptor agonist library” (Bioorg Med Chem Lett, 2010).
Activity calls are given as the source filed them. The calls are words filed in the database; no cut-off is given here.

How the values were obtained:
[1] = target: T1, Gamma-secretase (Homo sapiens) (UniProt Q96BI3+Q9NZ42+Q8WW43+P49768+Q92542+P49810); assay: Inhibition of gamma-secretase in HEK293 cells co-overexpressing APP Swedish mutant assessed as inhibition of amyloid beta 42 production at 1 uM by luciferase reporter gene assay relative to DAPT; type: cell-based; conditions: values are per cent of control
[2] = target: T1, Gamma-secretase (Homo sapiens); assay: Inhibition of gamma-secretase in HEK293 cells co-overexpressing APP Swedish mutant assessed as inhibition of amyloid beta 40 production at 1 uM by luciferase reporter gene assay relative to DAPT; type: cell-based; conditions: values are per cent of control
[3] = target: T1, Gamma-secretase (Homo sapiens); assay: Inhibition of gamma-secretase in HEK293 cells co-overexpressing APP Swedish mutant assessed as inhibition of amyloid beta 40 production at 100 uM by luciferase reporter gene assay relative to DAPT; type: cell-based; conditions: for residual activity: values are per cent of control
[4] = target: T1, Gamma-secretase (Homo sapiens); assay: Inhibition of gamma-secretase in HEK293 cells co-overexpressing NotchdeltaE assessed as inhibition of notch cleavage at 1 uM by luciferase reporter gene assay relative to DAPT; type: cell-based; conditions: for residual activity: values are per cent of control
[5] = target: T1, Gamma-secretase (Homo sapiens); assay: Inhibition of gamma-secretase in HEK293 cells co-overexpressing NotchdeltaE assessed as inhibition of notch cleavage at 100 uM by luciferase reporter gene assay relative to DAPT; type: cell-based; conditions: values are per cent of control
[6] = target: T1, Gamma-secretase (Homo sapiens); assay: Inhibition of gamma-secretase in HEK293 cells co-overexpressing APP Swedish mutant assessed as inhibition of amyloid beta 42 production at 100 uM by luciferase reporter gene assay relative to DAPT; type: cell-based; conditions: for residual activity: values are per cent of control
Gamma-secretase [7] = assay: Inhibition of gamma-secretase in HEK293 cells co-overexpressing APP Swedish mutant assessed as inhibition of amyloid beta 40 production by luciferase reporter gene assay; type: cell-based, Homo sapiens
Gamma-secretase [8] = assay: Inhibition of gamma-secretase in HEK293 cells co-overexpressing NotchdeltaE assessed as inhibition of notch cleavage by luciferase reporter gene assay; type: cell-based, Homo sapiens
Gamma-secretase [9] = assay: Inhibition of gamma-secretase in HEK293 cells co-overexpressing APP Swedish mutant assessed as inhibition of amyloid beta 42 production by luciferase reporter gene assay; type: cell-based, Homo sapiens
[10] = target: T1, Gamma-secretase (Homo sapiens); assay: Inhibition of gamma-secretase in HEK293 cells co-overexpressing APP Swedish mutant assessed as inhibition of amyloid beta 40 production at 3 uM by luciferase reporter gene assay relative to DAPT; type: cell-based; conditions: values are per cent of control
[11] = target: T1, Gamma-secretase (Homo sapiens); assay: Inhibition of gamma-secretase in HEK293 cells co-overexpressing NotchdeltaE assessed as inhibition of notch cleavage at 30 uM by luciferase reporter gene assay relative to DAPT; type: cell-based; conditions: values are per cent of control
[12] = target: T1, Gamma-secretase (Homo sapiens); assay: Inhibition of gamma-secretase in HEK293 cells co-overexpressing APP Swedish mutant assessed as inhibition of amyloid beta 40 production at 30 uM by luciferase reporter gene assay relative to DAPT; type: cell-based; conditions: values are per cent of control
[13] = target: T1, Gamma-secretase (Homo sapiens); assay: Inhibition of gamma-secretase in HEK293 cells co-overexpressing NotchdeltaE assessed as inhibition of notch cleavage at 3 uM by luciferase reporter gene assay relative to DAPT; type: cell-based; conditions: values are per cent of control
[14] = target: T1, Gamma-secretase (Homo sapiens); assay: Inhibition of gamma-secretase in HEK293 cells co-overexpressing APP Swedish mutant assessed as inhibition of amyloid beta 42 production at 3 uM by luciferase reporter gene assay relative to DAPT; type: cell-based; conditions: values are per cent of control
[15] = target: T1, Gamma-secretase (Homo sapiens); assay: Inhibition of gamma-secretase in HEK293 cells co-overexpressing APP Swedish mutant assessed as inhibition of amyloid beta 42 production at 30 uM by luciferase reporter gene assay relative to DAPT; type: cell-based; conditions: values are per cent of control

Compound `CCC(Cc1ccc(F)c(C(=O)NCc2ccc(C(F)(F)F)cc2)c1)C(=O)O` (stereo unspecified) has a residual activity [1] of 63.3%, a residual activity [2] of 77.6% and a residual activity [3] of 13%. The residual activity [4] was 53.8%, the residual activity [5] was 38.5% and the residual activity [6] was 0%.

Work on `CCC(Cc1ccc(F)c(C(=O)NCc2ccc(Oc3ccccc3)cc2)c1)C(=O)O` (stereo unspecified) yielded a residual activity [1] of 99.7%, a residual activity [2] of 89.8% and a residual activity [3] of 63.2%. It also gave a residual activity [4] of 6.3%, a residual activity [5] of 6.8% and a residual activity [6] of 106%.

`CC/C(=C\c1ccc(OC)c(C(=O)NCc2ccc(C(F)(F)F)cc2)c1)C(=O)O` was tested, and the IC50 (Gamma-secretase [7]) was 32.7 µM, the IC50 (Gamma-secretase [8]) was > 100 µM and the IC50 (Gamma-secretase [9]) was 22.4 µM.

For `CCC(Cc1ccc(OC)c(CNC(=O)c2ccc(Oc3ccccc3)cc2)c1)C(=O)O` (stereo unspecified), the residual activity [1] was 103%, the residual activity [2] was 103% and the residual activity [3] was 119%. It also gave a residual activity [6] of 145%.

`CCC(Cc1ccc(OC)c(C(=O)NCc2ccc(C(F)(F)F)cc2)c1)C(=O)O` (stereo unspecified) was tested, and the residual activity [1] was 88.5%, the residual activity [2] was 82% and the residual activity [3] was 41%. The residual activity [4] was 102%, the residual activity [5] was 8.9% and the residual activity [6] was 15.2%.

Work on `COc1ccc(CC(C)C(=O)O)cc1CNC(=O)c1ccc(C(F)(F)F)cc1` (stereo unspecified) yielded a residual activity [1] of 109%, a residual activity [2] of 114% and a residual activity [3] of 132%. The residual activity [6] was 139%.

`CC[C@@H](Cc1ccc(OC)c(C(=O)NCc2ccc(C(F)(F)F)cc2)c1)C(=O)O` was tested, and the IC50 (Gamma-secretase [7]) was > 100 µM, the IC50 (Gamma-secretase [8]) was 24 µM and the inhibition [4] was “Active”. For the same compound, the IC50 (Gamma-secretase [9]) was > 100 µM.

With `CC[C@H](Cc1ccc(OC)c(C(=O)NCc2ccc(C(F)(F)F)cc2)c1)C(=O)O` the IC50 (Gamma-secretase [7]) was 37.8 µM, the IC50 (Gamma-secretase [8]) was > 100 µM and the inhibition [3] was “Active”. For the same compound, the IC50 (Gamma-secretase [9]) was 34.2 µM and the inhibition [6] was “Active”.

Work on `COc1ccc(CCC(=O)O)cc1CNC(=O)c1ccc(C(F)(F)F)cc1` yielded a residual activity [1] of 102%, a residual activity [2] of 104% and a residual activity [3] of 112%. The residual activity [6] was 104%.

`CSc1ccc(/C=C2/C(C)=C(CC(=O)O)c3cc(F)ccc32)cc1` [SULINDAC SULFIDE] showed a residual activity [10] of 98.4%, a residual activity [11] of 43.9% and an IC50 (Gamma-secretase [7]) of 215 µM. The residual activity [12] was 88.6%, the IC50 (Gamma-secretase [8]) was 53 µM and the residual activity [13] was 90.7%. It also gave a residual activity [14] of 97.1%, an IC50 (Gamma-secretase [9]) of 82.5 µM and a residual activity [15] of 60.3%.

Compound `CCC(Cc1ccc(F)c(C(=O)NCc2ccc(OC(F)(F)F)cc2)c1)C(=O)O` (stereo unspecified) has a residual activity [1] of 87.4%, a residual activity [2] of 90.6% and a residual activity [3] of 42.6%. For the same compound, the residual activity [4] was 67.2%, the residual activity [5] was 0% and the residual activity [6] was 55.7%.

With `CCC(Cc1ccc(OC)c(CNC(=O)c2ccc(C(F)(F)F)cc2)c1)C(=O)O` (stereo unspecified) the residual activity [1] was 101%, the residual activity [2] was 89.5% and the residual activity [4] was 31.2%. It also gave a residual activity [5] of 0%.

Compound `CCC(Cc1ccc(OC)c(CNC(=O)c2ccc(OCC(F)(F)F)cc2)c1)C(=O)O` (stereo unspecified) has a residual activity [1] of 119%, a residual activity [2] of 118% and a residual activity [3] of 136%. For the same compound, the residual activity [5] was 84% and the residual activity [6] was 133%.
